Earlier results, collected in US20100151020A1, “DRUG […] SYSTEM FOR ZERO ORDER, ZERO ORDER BIPHASIC, ASCENDING OR […] […] OF METHYLPHENIDATE” (priority 2008, published 2010).
Structures can show the parent of a compound that is named as a salt. Where two headings read alike, the source gives them in different places.

Key:
[1] = reports
[2] = chronic methylphenidate dosing

COC(=O)C(c1ccccc1)C1CCCCN1 (stereo not shown) [methylphenidate HCl]
AD/HD patients responding positively [1]: 70-90% | drug excreted (adults): 80% | drug excreted (children): 67% | time to peak (children, immediate release): 1.9 h | time to peak, range (children, immediate release): 0.3 to 4.4 h | pharmacokinetic half-life (immediate release): 2 to 3 h | primary adverse events [2]: nervousness, insomnia, and appetite suppression
